In the OligoGym collection:
Bases are written 5' to 3'; sugars and linkages follow in the same order, as letters with counts (s phosphorothioate, o phosphodiester; PS: all linkages phosphorothioate). The collection does not say whether C is 5-methylated. l = locked nucleic acid (LNA); d = 2'-deoxy (DNA)

These sequences were tested against Tau (assay: rat primary cortical neurons, FLIPR, 25 uM ASO).

Sequence	calcium oscillation score
GCACCCTCCAAATCACCA (sugars l1 d15 l2, PS)	50.6 % of control
GCAGACACCTCGTCAGCTAG (sugars l3 d14 l3, PS)	59.6 % of control
GCAGAGGAACGTGTGG (sugars l3 d10 l3, PS)	0 % of control
GCAGGCGCGAGCAG (sugars l3 d8 l3, PS)	40.6 % of control
GCAGGCGCGAGCAGCG (sugars l3 d10 l3, PS)	23.5 % of control
GCAGGTATCCAGCCATATTT (sugars l3 d14 l3, PS)	29.4 % of control
GCAGGTTAAGTGATTAACCA (sugars l3 d14 l3, PS)	36.3 % of control
GCATCAGAGGTTTCAG (sugars l3 d10 l3, PS)	0 % of control
GCATGATTGTGGGC (sugars l3 d8 l3, PS)	85.7 % of control
GCATGATTGTGGGCT (sugars l3 d9 l3, PS)	0 % of control
GCATGATTGTGGGCTT (sugars l3 d10 l3, PS)	47.4 % of control
GCATGCAGTTTATTCCTGGC (sugars l3 d14 l3, PS)	4.03 % of control
GCCACACTTGGAGGTCACCT (sugars l3 d14 l3, PS)	4.52 % of control
GCCACCTCCTGGTTTA (sugars l3 d10 l3, PS)	86.1 % of control
GCCACCTCCTGGTTTATGAT (sugars l3 d14 l3, PS)	31.6 % of control
GCCAGGGACGTGGGTGATAT (sugars l3 d14 l3, PS)	0 % of control
GCCATATTTCAACTCTT (sugars l2 d11 l4, PS)	57.7 % of control
GCCATTTTCCATATAAT (sugars l4 d11 l2, PS)	37.5 % of control
GCCCACCCATCAATTTGGAA (sugars l3 d14 l3, PS)	1.3 % of control
GCCCATTCTACCTGGCCCAT (sugars l3 d14 l3, PS)	38.3 % of control
GCCCCACTTTTAATTAA (sugars l2 d11 l4, PS)	86.2 % of control
GCCCTAAAGTCCCAG (sugars l3 d9 l3, PS)	34.3 % of control
GCCCTAAAGTCCCAGG (sugars l3 d10 l3, PS)	41.9 % of control
GCCTAATGAGCCACAC (sugars l3 d10 l3, PS)	70.6 % of control
GCCTAATGAGCCACACTTGG (sugars l3 d14 l3, PS)	16.6 % of control
GCCTCATAAACCTAAT (sugars l3 d9 l4, PS)	68.2 % of control
GCCTCTAGCCACATGGACCC (sugars l3 d14 l3, PS)	4.03 % of control
GCCTGATCACAAACCC (sugars l3 d10 l3, PS)	144 % of control

Sequence	calcium oscillation score
GCCTTACTTTCTACTCA (sugars l2 d13 l2, PS)	70.7 % of control
GCCTTACTTTCTACTCAA (sugars l2 d13 l3, PS)	53.9 % of control
GCGACTTGTACACG (sugars l3 d8 l3, PS)	63.7 % of control
GCGACTTGTACACGAT (sugars l3 d10 l3, PS)	32.2 % of control
GCGACTTGTACACGATCTCC (sugars l3 d14 l3, PS)	7.77 % of control
GCGAGTCTACCATGTC (sugars l3 d10 l3, PS)	76 % of control
GCGAGTCTACCATGTCGATG (sugars l3 d14 l3, PS)	0 % of control
GCGCAGGCGCGAGCAG (sugars l3 d10 l3, PS)	0 % of control
GCGGAAGGTCAGCTTG (sugars l3 d10 l3, PS)	25.9 % of control
GCGGCGCAGGCGCGAG (sugars l3 d10 l3, PS)	73.6 % of control
GCGTGATCTTCCAT (sugars l3 d8 l3, PS)	182 % of control
GCGTTCTCGCGGAA (sugars l3 d8 l3, PS)	3.83 % of control
GCTAAGGCAAGGCCTA (sugars l3 d10 l3, PS)	129 % of control
GCTCAGCTAAGACCCTCAGG (sugars l3 d14 l3, PS)	29.4 % of control
GCTCCAACCACACCTT (sugars l2 d11 l3, PS)	85 % of control
GCTCCAACCACACCTTT (sugars l2 d11 l4, PS)	87.2 % of control
GCTCCATATTCCTGCCCAAG (sugars l3 d14 l3, PS)	34.2 % of control
GCTCTTCAAATCATTC (sugars l4 d8 l4, PS)	58.3 % of control
GCTCTTCAAATCATTCA (sugars l4 d11 l2, PS)	81.1 % of control
GCTGAGGTGCTCTGGT (sugars l3 d10 l3, PS)	19.2 % of control
GCTGGGTGGTGTCTTTGGAG (sugars l3 d14 l3, PS)	0 % of control
GCTTAATAAACACCCTT (sugars l2 d11 l4, PS)	68.5 % of control
GCTTCAGTCCTAATC (sugars l3 d9 l3, PS)	11.5 % of control
GCTTCCAGTCCCGTCT (sugars l3 d10 l3, PS)	104 % of control
GCTTTCCAATTCCCCA (sugars l2 d12 l2, PS)	101 % of control
GCTTTCCAATTCCCCAT (sugars l2 d12 l3, PS)	94.5 % of control
GCTTTTCCCAATTATTA (sugars l4 d11 l2, PS)	62 % of control
